According to ChEMBL document CHEMBL1201862, “PubChem BioAssay data set” (2004):
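Each compound was tested at five concentrations against cells in 96-well plates for 48 hours. The concentration for 50% growth inhibition is given as GI50.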 Active and inactive are the calls of the source. Cut-off read from the data, not from the text of the source: active = GI50 up to about 1.1 µM and inactive = higher.

What was measured:
Experiment in all cases: NCI tumour cell line growth inhibition, 48 h
[1] = tested on: MDA-N
[2] = tested on: CCRF-CEM
[3] = tested on: SNB-75
[4] = tested on: MOLT-4
[5] = tested on: NCI-H226
[6] = tested on: TK-10
[7] = tested on: IGROV-1
[8] = tested on: M14
[9] = tested on: NCI-H460
[10] = tested on: MCF7
[11] = tested on: HCC 2998
[12] = tested on: 786-0
[13] = tested on: OVCAR-4
[14] = tested on: OVCAR-8
[15] = tested on: DU-145
[16] = tested on: EKVX
[17] = tested on: HCT-15
[18] = tested on: HOP-62
[19] = tested on: UACC-62

Structure (SMILES) | GI50 [1] | GI50 [2] | GI50 [3] | GI50 [4] | GI50 [5] | GI50 [6] | GI50 [7] | GI50 [8] | GI50 [9] | GI50 [10] | GI50 [11] | GI50 [12] | GI50 [13] | GI50 [14] | GI50 [15] | GI50 [16] | GI50 [17] [µM] | GI50 [18] | GI50 [19]
Cc1sc2c(c1C)C(=O)c1cccn1-2 | 28.6 µM (inactive) | 56.1 µM (inactive) | 35.2 µM (inactive) | 38.8 µM (inactive) | > 100 µM (inactive) | > 100 µM (inactive) | 64.7 µM (inactive) | > 100 µM (inactive) | > 100 µM (inactive) | 68.5 µM (inactive) | > 100 µM (inactive) | 87.7 µM (inactive) | > 100 µM (inactive) | > 100 µM (inactive) | 95.3 µM (inactive) | 56.4 µM (inactive) | > 100 | > 100 µM (inactive) | 62.7 µM (inactive)
COc1cc(O)c2c(=O)c(OC)c(-c3ccc(OC)c(O)c3)oc2c1 [AYANIN] | 73.1 µM (inactive) | 23.6 µM (inactive) | 6.14 µM (inactive) | 42.7 µM (inactive) | > 100 µM (inactive) | 17.6 µM (inactive) | 25.4 µM (inactive) | 52.2 µM (inactive) | 14 µM (inactive) | 15.5 µM (inactive) | 28.2 µM (inactive) | 12.5 µM (inactive) | 22.1 µM (inactive) | 66.5 µM (inactive) | 20 µM (inactive) | 62.5 µM (inactive) | 14.3 | 31.5 µM (inactive) | 23.5 µM (inactive)
CSc1nc(Cl)c2c(n1)Sc1nc3ccccc3n1C2O (stereo not given) | 2.86 µM (inactive) | 1.36 µM (inactive) | 10.6 µM (inactive) | 3.48 µM (inactive) | 29.1 µM (inactive) | 7.13 µM (inactive) | 3.87 µM (inactive) | 3.46 µM (inactive) | 13.4 µM (inactive) | 4.02 µM (inactive) | 3.91 µM (inactive) | 2.15 µM (inactive) | 17.2 µM (inactive) | 2.84 µM (inactive) | 11.4 µM (inactive) | 33.4 µM (inactive) | 3.4 | 13.8 µM (inactive) | 3.42 µM (inactive)
C(=C\c1nccs1)/c1cccc(/C=C/c2nccs2)n1 | > 50 µM (inactive) | > 50 µM (inactive) | 22 µM (inactive) | 38.4 µM (inactive) | > 50 µM (inactive) | > 50 µM (inactive) | 26.5 µM (inactive) | > 50 µM (inactive) | > 50 µM (inactive) | 18.8 µM (inactive) | 27.7 µM (inactive) | > 50 µM (inactive) | > 50 µM (inactive) | 47.9 µM (inactive) | > 50 µM (inactive) | 49 µM (inactive) | > 50 | > 50 µM (inactive) | > 50 µM (inactive)
COc1ccc2c3c1OC1C34CCN(C)C(C2)C4=CC(I)C1(OC)OC (stereo not given) | 6.14 µM (inactive) | 1.32 µM (inactive) | 19.6 µM (inactive) | 3.15 µM (inactive) | 18.6 µM (inactive) | 14.7 µM (inactive) | 8.71 µM (inactive) | 14.3 µM (inactive) | 13.5 µM (inactive) | 5.08 µM (inactive) | 10.2 µM (inactive) | 4.15 µM (inactive) | 13.2 µM (inactive) | 4.09 µM (inactive) | 10.8 µM (inactive) | 14.4 µM (inactive) | 11.8 | 8.77 µM (inactive) | 14.6 µM (inactive)
CC(C)(Cl)C(Cl)CC/C(CBr)=C(\Cl)CBr (stereo not given) | 1.81 µM (inactive) | 0.15 µM (active) | 2.23 µM (inactive) | 0.473 µM (active) | 1.79 µM (inactive) | 1.95 µM (inactive) | 1.66 µM (inactive) | 1.6 µM (inactive) | 2.71 µM (inactive) | 2.49 µM (inactive) | 9.68 µM (inactive) | 1.36 µM (inactive) | 1.51 µM (inactive) | 1.95 µM (inactive) | 7.5 µM (inactive) | 16.5 µM (inactive) | 1.75 | 2.24 µM (inactive) | 1.76 µM (inactive)
Fc1cccc2nc(-c3ccccc3)cc(OCc3ccccc3)c12 | > 100 µM (inactive) | > 100 µM (inactive) | 65.6 µM (inactive) | > 100 µM (inactive) | > 100 µM (inactive) | > 100 µM (inactive) | > 100 µM (inactive) | > 100 µM (inactive) | > 100 µM (inactive) | 59.7 µM (inactive) | > 100 µM (inactive) | > 100 µM (inactive) | > 100 µM (inactive) | > 100 µM (inactive) | > 100 µM (inactive) | 20.8 µM (inactive) | > 100 | > 100 µM (inactive) | > 100 µM (inactive)
C=C(C)C(=O)OC1CC2(C)OC2CC(OC(C)=O)/C(C)=C/C2OC(=O)C(=C)C21 (stereo not given) | 2.73 µM (inactive) | 0.0895 µM (active) | 15.5 µM (inactive) | 0.441 µM (active) | 17.6 µM (inactive) | 3.45 µM (inactive) | 4.17 µM (inactive) | 3.01 µM (inactive) | 1.73 µM (inactive) | 2.33 µM (inactive) | 6.34 µM (inactive) | 2.22 µM (inactive) | 9.48 µM (inactive) | 2.03 µM (inactive) | 2.13 µM (inactive) | 3.1 µM (inactive) | 0.566 | 13.1 µM (inactive) | 4.57 µM (inactive)
COC(C)(C)[C@@H](O)[C@H]1C[C@H](C)[C@@]2(CC[C@]3(C)[C@@H]2CC[C@@H]2[C@@]4(C)CC[C@@H](OC(C)=O)C(C)(C)[C@@H]4C[C@@H](OC4OC(COC(C)=O)C(O)C(O)C4O)[C@]23C)O1 (stereo not given in full) | 5.43 µM (inactive) | 3.3 µM (inactive) | 4.46 µM (inactive) | 2.32 µM (inactive) | 4.75 µM (inactive) | 12.2 µM (inactive) | 4.39 µM (inactive) | 4.8 µM (inactive) | 4.37 µM (inactive) | 2.86 µM (inactive) | 0.662 µM (active) | 5.86 µM (inactive) | 3.48 µM (inactive) | 5.33 µM (inactive) | 4.37 µM (inactive) | 5.74 µM (inactive) | 2.39 | 12.3 µM (inactive) | 4.93 µM (inactive)
COC1=CC(=O)c2nc3ccccc3c3ccnc1c23 | 0.448 µM (active) | 4.4 µM (inactive) | 9.89 µM (inactive) | 4.01 µM (inactive) | 10.8 µM (inactive) | 19.3 µM (inactive) | 3.56 µM (inactive) | 2.9 µM (inactive) | 0.434 µM (active) | 1.95 µM (inactive) | 3.1 µM (inactive) | 3.64 µM (inactive) | 4.89 µM (inactive) | 3.26 µM (inactive) | 3.25 µM (inactive) | 12.6 µM (inactive) | 0.721 | 5.74 µM (inactive) | 1.07 µM (active)
Nc1c(C(=O)c2ccccc2)[nH]c(NCc2ccccc2)c1C(=S)Nc1ccccc1 | > 100 µM (inactive) | > 100 µM (inactive) | > 100 µM (inactive) | > 100 µM (inactive) | > 100 µM (inactive) | > 100 µM (inactive) | > 100 µM (inactive) | > 100 µM (inactive) | > 100 µM (inactive) | > 100 µM (inactive) | > 100 µM (inactive) | > 100 µM (inactive) | > 100 µM (inactive) | > 100 µM (inactive) | > 100 µM (inactive) | > 100 µM (inactive) | > 100 | > 100 µM (inactive) | > 100 µM (inactive)
CCCCCCCCCCCCCCCCCCNc1nc(=O)n(C2CC(O)C(COP(=O)(O)OCC3OC(n4ccc(N)nc4=O)C(O)C3O)O2)cc1F (stereo not given) | > 100 µM (inactive) | > 100 µM (inactive) | > 100 µM (inactive) | 25.9 µM (inactive) | > 100 µM (inactive) | > 100 µM (inactive) | 30.3 µM (inactive) | 9.35 µM (inactive) | 4.5 µM (inactive) | 6.7 µM (inactive) | 11.8 µM (inactive) | 8.34 µM (inactive) | 93.5 µM (inactive) | 4.13 µM (inactive) | 25.1 µM (inactive) | > 100 µM (inactive) | 12.7 | 18.7 µM (inactive) | 80.4 µM (inactive)
CC1=CC[C@H](C[C@H](C#CCCCC2OCCO2)O[Si](C(C)C)(C(C)C)C(C)C)C(=O)CC1 | > 100 µM (inactive) | > 100 µM (inactive) | > 100 µM (inactive) | > 100 µM (inactive) | > 100 µM (inactive) | > 100 µM (inactive) | > 100 µM (inactive) | > 100 µM (inactive) | > 100 µM (inactive) | > 100 µM (inactive) | > 100 µM (inactive) | > 100 µM (inactive) | > 100 µM (inactive) | > 100 µM (inactive) | > 100 µM (inactive) | > 100 µM (inactive) | > 100 | > 100 µM (inactive) | > 100 µM (inactive)
CCC/C(Cl)=N\OC(=O)Nc1ccc(OC(F)(F)F)cc1 | 13.5 µM (inactive) | 2.47 µM (inactive) | 15.6 µM (inactive) | 1.86 µM (inactive) | 15.6 µM (inactive) | 3.3 µM (inactive) | 6.93 µM (inactive) | 6.52 µM (inactive) | 20.5 µM (inactive) | 8.26 µM (inactive) | 19.5 µM (inactive) | 12.3 µM (inactive) | 18.6 µM (inactive) | 16.7 µM (inactive) | 18 µM (inactive) | 10.1 µM (inactive) | 2.42 | 18.1 µM (inactive) | 18.8 µM (inactive)
C(CCc1nnc2c(n1)CCCC2)Cc1nnc2c(n1)CCCC2 | 88.3 µM (inactive) | > 100 µM (inactive) | > 100 µM (inactive) | > 100 µM (inactive) | > 100 µM (inactive) | > 100 µM (inactive) | > 100 µM (inactive) | > 100 µM (inactive) | > 100 µM (inactive) | > 100 µM (inactive) | > 100 µM (inactive) | > 100 µM (inactive) | > 100 µM (inactive) | > 100 µM (inactive) | > 100 µM (inactive) | > 100 µM (inactive) | > 100 | > 100 µM (inactive) | > 100 µM (inactive)
